Measurements taken from patent publication US11207379B2, “Peptides with anti-cancer activity” (IDP DISCOVERY PHARMA, S.L., priority 2016, dated 2021).
Numbered stars: 1 amine (or outer) side, 2 acyl side, 3 side chain; on linkers, the order of the positions; unused ones are H or OH. Bridge positions count the residues as written; N and C are the ends. Square brackets hold non-standard residues; d marks the D form. Ends that are not written are not given here. Peptide text beside a SMILES is read from it. ξ: configuration not given here. ξαMeNle(6-ylidene) = CC(CCCC=[*:3])(N[*:1])C(=O)[*:2]; X1 = CC(CCCCCCC=[*:3])(N[*:1])C(=O)[*:2]; Suc = O=C(CCC(=O)[*:2])[*:1]

Assays:
[1] = biological target: MM.1S, B Lymphoblast (multiple myeloma); assay: Viability assay (MTT, Alamar Blue, hexosaminidase), 72 h; type: cell-based
Experimental: MM.1S, B Lymphoblast (multiple myeloma), ATCC: CRL-2974
(§1) Cell lines A549, MCF-7 and RAMOS were cultured in incubator under CO2 (6%) at 37° C. in DMEM high glucose (Dulbecco's Modified Eagle Solution, Gibco-BRL 31966-21) medium with 10% fetal bovine serum inactivated (FBS) (Gibco-BRL 10106-169). Cell lines HL-60 and MM.1S were cultured in incubator at 37° C. in RPMI-1640 (Sigma R8758) medium with 10% of fetal bovine serum inactivated (FBS) and 2 mM glutamine (Sigma G7513). Cell lines BJ were cultured in incubator under CO2 (6%) at 37° C. in Eagle's Minimum Essential Medium (Sigma, M-2279) with 10% fetal bovine serum inactivated (FBS) (Gibco-BRL 10106-169).
(§2) During the amplification step and the assays adherent cells were rinsed with DPBS (Dulbecco's Phosphate Buffered Saline, Sigma D1283) three times and afterward treated for 5 minutes with trypsin ([…]) (Gibco-BRL, 15400054) in solution of DPBS at 37° C., and, once detached, transferred in the culturing medium. No-adherent cells were centrifuged and transferred in the culturing medium. Cells were counted in a Neubauer chamber after labelling with Tripan-Blue.
(§3) A549, MCF-7 and JB cells were seeded at a density of 5000 cells/well and HL-60, MM.1S and Ramos at 10000 cells/well in 100 μl of medium in 96 well plates. After 24 h, the compounds to be tested were added to calculate the dose/response curve at the starting concentration of 100 μM with serial dilutions (1:1). Controls are the untreated cells. Each experiment was performed in triplicate.
(§4) Cells were incubated during 72 h in incubator under CO2 atmosphere at 37° C. Cell viability was measured by means of MTT (3-(4,5-dimethylthiazol-2-yl)-2.5-diphenyltetrazolium bromide) assay, Alamar Blue® (Biosource DAL1100) and Hexosaminidase activity test, consecutively, following manufacturer instructions.
(§5) MTT: 1. Stock solution of MTT (475989 Calbiochem) was 5 mg/ml in PBS 1×. As negative control (experiment noise) 3 wells were treated with 20 μl/well of a solution of SDS 10% in H2O. The same control was used for Alamar Blue/Hexosaminidase. 10 μl/well of MTT solution were added and the plate was incubated for 3-4 hr. The medium was discarded and 100 μl of extracting buffer (PBS 1×, 15% SDS, 50% […] N,N-Dimethylformamide, pH 4.7) were added to each well. Plates were incubated for 16 h at room temperature under orbital shaking. Absorbance at 570 nm was finally measured.
(§6) Alamar Blue: 10 μl Alamar Blue solution was added to each well and the plates were incubated for […] in the incubator. Fluorescence ratio at 535/590 (excitation/emission) was measured in Cytofluor (Millipore) fluorimeter. Blank control was determined by lysis of untreated cells with con 2% of Triton X100, right before adding Alamar Blue solution.
(§7) Hexosaminidase activity test: after Alamar Blue lecture, medium was discarded and plates were rinsed once with PBS. 60 μl hexosaminidase substrate (p-nitrophenol-N-acetyl-beta-D-glucosamide 7.5 mM [Sigma N-9376], sodium citrate 0.1 M, pH 5.0, 0.25% Triton X-100) was added to each well and the plates were incubated at 37° C. for 2-5 h, according to the cell type (hexosaminidase activity changes according to the cell type). […] Blank control was the same as described before.
(§8) Data analysis was performed calculating the percentage of cell viability normalized vs. the values of negative control, which was considered equal to 100%. The dose/response curve was fitted through the sigmoidal equation dose-response (variable slope) and the EC50 values were calculated as follow: Y=Bottom+(Top−Bottom)/(1+10^{[(Log EC50−X)*HillSlope]},

[2] = biological target: MCF-7, epithelial (breast cancer); assay: as above; type: cell-based
Experimental: MCF-7, epithelial (breast cancer), ECACC: 86012803
as §1, §2, §3, §4, §5, §6, §7, §8

several tumor cell lines = assay: Anticancer activity in viability assay, stated in words; type: cell-based
Experimental: as §3, §4, §8

[3] = biological target: RAMOS, B lymphocyte (Burkitt's Lymphoma); assay: Viability assay (MTT, Alamar Blue, hexosaminidase), 72 h; type: cell-based
Experimental: RAMOS, B lymphocyte (Burkitt's Lymphoma), ATCC: CRL-1596
as §1, §2, §3, §4, §5, §6, §7, §8

[4] = biological target: HL-60, promyeloblast (acute myelocytic leukemia, AML); assay: as above; type: cell-based
Experimental: HL-60, promyeloblast (acute myelocytic leukemia, AML), ECACC: 98070106
as §1, §2, §3, §4, §5, §6, §7, §8

[5] = biological target: A549, epithelial (lung cancer); assay: as above; type: cell-based
Experimental: A549, epithelial (lung cancer), ATCC:CCL-185
as §1, §2, §3, §4, §5, §6, §7, §8

[6] = Stability test in human plasma, 37 °C, UPLC-MS/MS; type: in vitro ADME
Experimental: Reagents: ACN LC-MS (Scharlab AC03712500); MeOH LC-MS (Scharlab ME03262500); IPA LC-MS (Scharlab AL03262500); HCOOH (Carlo Erba 405792); DPBS (Lonza BE17-512F); human plasma with EDTAK2 as anticoagulant were provided by Centre d'Investigació de Medicaments located at the Hospital de la Santa Creu i Sant Pau, C/. Sant Antoni Maria Claret 167, Pavelló Sant Frederic, 08025 Barcelona. Plasma was extracted from a healthy patient on 1 Feb. 2015. It was kept at −20° C. until the experiment day.
A calibration curve of eight non-zero concentration levels (from P1 to P8) was prepared in a concentration interval from 5 to 100 μM for S09. One blank sample of DPBS was also included. All calibration samples were analysed in duplicate. Calibration standard samples were prepared by addition of 30 μL of each calibration solution (from P1 to P8 and blank) to 270 μL of human plasma. Samples for incubation were prepared adding 15 μL of 1 mM solution of S09 to 135 μL of human plasma (final concentration 100 μM). 15 samples were prepared. Samples were incubated at 37° C. for 0, 0.5, 2, 6 and 24 h (three replicates were prepared for each incubation time).
An aliquot of 125 μL human plasma sample (blank, calibration standards and incubation samples) were processed using Sirocco™ Protein Precipitation plates (Waters). 375 μL of ACN were added to each well of the Sirocco plate. Then the samples were filtered applying vacuum (8-10 mm Hg) for about 5 minutes. The filtrates were evaporated under a steady stream of nitrogen (40° C.) and reconstituted with 150 μL of MeOH:H2O 0.1% HCOOH for analysis. Samples were analyzed by UPLC(ACQUITY Ultra Performance LC-MS/MS(API 3000).
UPLC conditions (X-Bridge C18 column; Pump A: H2O with 0.1% formic acid; Pump B Acetonitrile with 0.1% formic acid) using a linear gradient 5%-95% of B in 8 minutes (R. T.=5.95). The mean (out of 3 experiments) of the normalized percentage integrated area corresponding to the peak of S09 at different time are reported in table 11 below.

What does the source list for “NELKRSFFALRDQ-OH [IDP-L10, NELKRSFFALRDQ]”?
EC50 [1]: > 100 µM; EC50 [2]: > 100 µM; anticancer activity (active / inactive) (several tumor cell lines): inactive; EC50 [3]: > 100 µM; EC50 [4]: > 100 µM

For CC[C@H](C)[C@H](NC(=O)[C@H](Cc1ccc(O)cc1)NC(=O)[C@H](C)NC(=O)[C@H](CC(C)C)NC(=O)[C@H](C)NC(=O)[C@H](CCCCN)NC(=O)[C@H](CCCCN)NC(=O)[C@H](Cc1ccccc1)NC(=O)[C@@H](NC(=O)[C@@H](NC(=O)[C@@H](NC(=O)[C@H](CCCCN)NC(=O)[C@@H]1CCCN1)[C@@H](C)CC)C(C)C)[C@@H](C)CC)C(=O)O [IDP-L14α, Pro-Lys-Val-Val-Ile-Leu-Lys-Lys-Ala-Thr-Ala-Tyr-Ile], which EC50 [1] is on record?
The EC50 was greater than 100 µM.

What about the EC50 [5] of the same compound?
The EC50 was greater than 100 µM.

What about the EC50 [2] of the same compound?
The EC50 was greater than 100 µM.

And the “anticancer activity (active / inactive)” value (several tumor cell lines)?
The value was “inactive”.

What about the EC50 [3] of the same compound?
Its EC50 is greater than 100 µM.

And the EC50 [4]?
Its EC50 is greater than 100 µM.

Which EC50 [1] does the source give for CC(C)C[C@H](NC(=O)[C@H](C)NC(=O)[C@H](C)NC(=O)[C@H](Cc1ccccc1)NC(=O)[C@H](CO)NC(=O)[C@H](CCCNC(=N)N)NC(=O)[C@H](CCCCN)NC(=O)[C@H](CC(C)C)NC(=O)[C@H](CCC(=O)O)NC(=O)[C@H](CC(N)=O)NC(=O)[C@H](CCCNC(=N)N)NC(=O)[C@H](CCCNC(=N)N)NC(=O)[C@H](CCC(N)=O)NC(=O)[C@H](CCCNC(=N)N)NC(=O)CCC(=O)O)C(=O)N[C@@H](CCCNC(=N)N)C(=O)N[C@@H](CC(=O)O)C(=O)N[C@@H](CCC(N)=O)C(=O)O [IDP-L12] (Suc-RQRRNELKRSFAALRDQ-OH; N-terminus and C-terminus assumed) here?
Its EC50 is greater than 100 µM.

And the EC50 [2]?
The EC50 was greater than 100 µM.

What about the “anticancer activity (active / inactive)” value (several tumor cell lines) of the same compound?
The value was “inactive”.

What about the EC50 [3] of the same compound?
Its EC50 is greater than 100 µM.

What about the EC50 [4] of the same compound?
Its EC50 is greater than 100 µM.

Which EC50 [1] does the source give for CC(C)C[C@H](NC(=O)[C@H](C)NC(=O)[C@H](C)NC(=O)[C@H](Cc1ccccc1)NC(=O)[C@H](C)NC(=O)[C@H](CCCNC(=N)N)NC(=O)[C@H](CCCCN)NC(=O)[C@H](CC(C)C)NC(=O)[C@H](CCC(=O)O)NC(=O)[C@H](CC(N)=O)NC(=O)[C@H](CCCNC(=N)N)NC(=O)[C@H](CCCNC(=N)N)NC(=O)[C@H](CCC(N)=O)NC(=O)[C@H](CCCNC(=N)N)NC(=O)CCC(=O)O)C(=O)N[C@@H](CCCNC(=N)N)C(=O)N[C@@H](CC(=O)O)C(=O)N[C@@H](CCC(N)=O)C(=O)O [IDP-L13, RQRRNELKRAFAALRDQ] (Suc-RQRRNELKRAFAALRDQ-OH; N-terminus and C-terminus assumed) here?
The EC50 was greater than 100 µM.

What about the EC50 [2] of the same compound?
Its EC50 is greater than 100 µM.

What about the “anticancer activity (active / inactive)” value (several tumor cell lines) of the same compound?
The value was “inactive”.

What about the EC50 [3] of the same compound?
The EC50 was greater than 100 µM.

And the EC50 [4]?
Its EC50 is greater than 100 µM.

What does the source list for CC[C@H](C)[C@H](NC(=O)[C@H](Cc1ccc(O)cc1)NC(=O)[C@H](C)NC(=O)C1(C)CCCC=CCCCCCCC(C)(NC(=O)[C@H](CCCCN)NC(=O)[C@@H]2CCCN2C(=O)[C@H](C)N)C(=O)N[C@@H](C(C)C)C(=O)N[C@@H]([C@@H](C)CC)C(=O)N[C@@H](CC(C)C)C(=O)N[C@@H](CCCCN)C(=O)N[C@@H](CCCCN)C(=O)N[C@@H](C)C(=O)N1)C(=O)N[C@@H](CC(C)C)C(=O)N[C@@H](CO)C(=O)O (some centres unmarked) [IDP-S09, APKXVILKKAXAYILS-OH] (H-APK[X1]VILKKA[ξαMeNle(6-ylidene)]AYILS-OH; staple 4-11; N-terminus assumed)?
% Remaining of active metabolyte (mean) ([6]; 100 μM, incubation time 0 h): 0%; % Remaining of starting compound (mean) ([6]; 100 μM, incubation time 0 h): 100%; % Remaining of active metabolyte (mean) ([6]; 100 μM, incubation time 2 h): 0%; % Remaining of active metabolyte (mean) ([6]; 100 μM, incubation time 6 h): 0%; % Remaining of active metabolyte (mean) ([6]; 100 μM, incubation time 24 h): 0%; remaining at 2 h, 100 μM ([6]; human plasma (EDTA-K2), incubation time 2 h, read-out: % Remaining of starting compound (mean)): 106 ± 4.9%; remaining at 6 h, 100 μM ([6]; human plasma (EDTA-K2), incubation time 6 h, read-out: % Remaining of starting compound (mean)): 90 ± 16%; remaining at 24 h, 100 μM ([6]; human plasma (EDTA-K2), incubation time 24 h, read-out: % Remaining of starting compound (mean)): 97 ± 10%
